The values that follow come from US6987088B2, “Compounds that bind HER2” (Genentech, Inc., priority 1999, dated 2006).

Assay [1] addresses T1, HER2-ECD (Homo sapiens, UniProt P04626).
T1 construct: immobilized extracellular domain of Erb2 (HER2-ECD, Hudziak et al. (1991) J. Biol. Chem. 266:24109-15)
Nature of the assay: HER2 competition ELISA (block binding of 1.1.FI-Zb to immobilized HER2-ECD). To be noted: for HER2 binding activity of Superdex 75 fractions (active species): monomer and dimer fractions assayed in HER2 competition ELISA; for IC50: read-out: IC50, block binding of 1.1.FI-Zb to immobilized HER2, HER2 competition ELISA, 40 nM biotinylated 1.1.FI-Z. (In general: ELISA stands for enzyme-linked immunosorbent assay.)
Description: By way of exemplification and not limitation an ELISA assay can be conducted wherein microtiter plates (for example, Nunc Maxisorp™ 96-well plates, Inter Med, Denmark) are coated with HER2-ECD in 50 mM ammonium bicarbonate, pH 9.3, using 5 μg/ml, overnight at 4° C. Wells can be blocked using PBS containing 1% BSA (PBS-BSA) for 1 hr at 25° C. […] Following an incubation of about 1 hour the plate is washed with PBS-TWEEN and Strepavidin-HRP is added for about 30 min. Plates are washed again with PBS-TWEEN and the bound HRP assayed using ABTS/H2O2 substrate. The change in absorbance at 405 nm is monitored. Decrease in absorbance is plotted vs. sample concentration and an IC50 for each candidate peptide ligand is determined.
Following a 1 h incubation the plate was washed with PBS-Tween and Strepavidin/HRP conjugate (Streptavidin-POD, Roche Molecular Biochemicals) was added for 30 min. Plates were washed again with PBS-Tween and the bound HRP was assayed using ABTS/H2O2 substrate (Kirkegaard & Perry Laboratories) and the absorbance at 405 nm was monitored. […] Fractions from the HPLC were tested for their ability to compete in the HER2 competition ELISA.

In a further assay the target is T2, HER2 expressed on cells (Homo sapiens, UniProt P04626).
T2 construct: Cells expressing HER2 (BT 474 [3+], MDA 361 [2+], and BaF3 [0+]); endogenous in cells; host or cells: BT 474, MDA 361 (BaF3 as control line without HER2)
Nature of the assay: Cell binding by FACS analysis (BT 474, MDA 361, BaF3). Format: cell-based. The note with it: BT 474 (3×10^6 receptors/cell), MDA 361 (4×10^5 receptors/cell), BaF3 (no HER2); 0, 0.5 or 5 μM.

Assay [2] has as its target T1, HER2-ECD. Nature of the assay: Phage binding assay, immobilized HER2-ECD. Here is the method:
(§1) • Selection Conditions—HER2-ECD was immobilized directly to maxisorp plates in 50 mM ammonium bicarbonate, pH 9.3, using 5 μg/ml, overnight at 4° C. Wells were blocked using PBS containing 1% BSA (PBS-BSA) for 1 hr at 25° C. Phage from each pool were incubated in wells containing HER2-ECD in PBS-BSA for 3 hr at 25° C.; generally about 5×10^10 phage were added at the beginning of each round. Unbound phage were removed by repetitive washing with PBS containing 0.05% Tween 20 (PBS-Tween); remaining phage were eluted with 500 mM KCl, 10 mM HCl, pH 2. The eluted phage were then amplified in XL1-Blue cells with VCSM13 helper phage (Stratagene) overnight at 37° C. IPTG (10 μM) was added only to the initial phage libraries and during amplification following round 1; later rounds relied on basal expression of the tac promoter for production of peptide-pVIII expression. Enrichment was monitored by titering the number of phage which bound to a target coated well compare to a well coated with BSA. • HER2 Phage Binding Assay—Inhibition of binding of phage displaying a single copy of peptide 1.1FI (Table 1) on their surface to the immobilized extracellular domain of Erb2 (HER2-ECD, Hudziak et al. (1991) J. Biol. Chem. 266:24109-15) was monitored using a phage ELISA. HER2-ECD was immobilized directly to Maxisorp plates (Nunc) in 50 mM ammonium bicarbonate, pH 9.3, using 5 μg/ml, overnight at 4° C. Wells were blocked using PBS containing 1% BSA (PBS-BSA) for 1 h at 25° C. Dilutions of 1.1FI-Fc in PBS-BSA were tested for their ability to block the binding of 1.1FI displaying phage to the immobilized HER2-ECD. The microtiter plate was washed with PBS containing 0.05% Tween20 (PBS-Tween) and the phage bound to HER2-ECD were detected with an anti-gVIII/HRP monoclonal antibody conjugate (Amersham Pharmacia Biotech). The amount of HRP bound Was measured using ABTS/H2O2 substrate and monitoring the change at 405 nm. Results • Selection of Polyvalent Peptide-Phage That Bind to HER2-ECD—Polyvalent peptide libraries were sorted in 7 pools (Table 1) against immobilized HER2-ECD. […]

The next assay has as its target HER3 (Homo sapiens, UniProt P21860). The assay can be described thus: Phage binding assay, HER3.
The target of another assay is HER4 (Homo sapiens, UniProt Q15303). Nature of the assay: Phage binding assay, HER4.
The next assay addresses BSA (Bos taurus, UniProt P02769). The assay can be described thus: Phage binding assay, immobilized BSA. Here is the method:
as §1

A further assay concerns the target T3, immobilized HER2 (Homo sapiens, UniProt P04626).
T3 construct: immobilized extracellular domain of Erb2 (HER2-ECD, Hudziak et al. (1991) J. Biol. Chem. 266:24109-15)
The assay can be described thus: Binding of Class 1 and Class 7 phage clones to immobilized HER2 in the presence of peptide.

“Also recorded” adds a separate entry of the source. Where no end group is shown, it is not given here.

HER4, sequence (Q15303 26-1308, species assumed): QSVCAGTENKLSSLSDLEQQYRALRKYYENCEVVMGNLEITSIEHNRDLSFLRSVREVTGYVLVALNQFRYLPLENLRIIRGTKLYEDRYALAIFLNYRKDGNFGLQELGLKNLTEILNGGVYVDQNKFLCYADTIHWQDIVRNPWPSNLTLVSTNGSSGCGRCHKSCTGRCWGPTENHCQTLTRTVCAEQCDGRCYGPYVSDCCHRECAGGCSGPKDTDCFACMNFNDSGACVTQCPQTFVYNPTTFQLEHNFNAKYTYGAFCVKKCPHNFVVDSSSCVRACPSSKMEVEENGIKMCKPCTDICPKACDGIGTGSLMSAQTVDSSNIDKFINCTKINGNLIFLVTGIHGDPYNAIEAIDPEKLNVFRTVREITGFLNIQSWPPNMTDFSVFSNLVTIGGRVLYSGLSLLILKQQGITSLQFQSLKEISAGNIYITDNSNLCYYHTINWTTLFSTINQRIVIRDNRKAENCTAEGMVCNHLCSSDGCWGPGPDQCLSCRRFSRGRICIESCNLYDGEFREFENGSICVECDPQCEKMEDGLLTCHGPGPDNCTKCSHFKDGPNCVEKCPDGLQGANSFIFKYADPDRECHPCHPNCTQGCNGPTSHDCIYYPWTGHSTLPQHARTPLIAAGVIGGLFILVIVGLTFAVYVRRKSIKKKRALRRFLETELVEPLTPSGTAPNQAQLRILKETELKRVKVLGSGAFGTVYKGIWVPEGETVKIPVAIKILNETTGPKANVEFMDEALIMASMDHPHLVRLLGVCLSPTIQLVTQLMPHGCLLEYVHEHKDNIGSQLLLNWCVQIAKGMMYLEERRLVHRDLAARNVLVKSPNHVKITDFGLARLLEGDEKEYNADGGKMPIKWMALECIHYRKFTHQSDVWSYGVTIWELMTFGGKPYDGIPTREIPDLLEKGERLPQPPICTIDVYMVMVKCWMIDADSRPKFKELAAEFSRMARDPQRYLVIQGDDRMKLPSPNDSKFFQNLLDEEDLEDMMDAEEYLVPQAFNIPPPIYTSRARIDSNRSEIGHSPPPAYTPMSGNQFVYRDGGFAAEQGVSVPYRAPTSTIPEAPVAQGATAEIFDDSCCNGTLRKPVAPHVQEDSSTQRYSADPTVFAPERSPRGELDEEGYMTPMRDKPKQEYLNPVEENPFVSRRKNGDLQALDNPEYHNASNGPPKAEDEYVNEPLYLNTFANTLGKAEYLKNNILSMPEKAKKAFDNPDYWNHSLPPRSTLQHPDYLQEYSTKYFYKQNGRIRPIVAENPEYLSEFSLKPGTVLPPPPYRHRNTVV
HER3, sequence (P21860 20-1342, species assumed): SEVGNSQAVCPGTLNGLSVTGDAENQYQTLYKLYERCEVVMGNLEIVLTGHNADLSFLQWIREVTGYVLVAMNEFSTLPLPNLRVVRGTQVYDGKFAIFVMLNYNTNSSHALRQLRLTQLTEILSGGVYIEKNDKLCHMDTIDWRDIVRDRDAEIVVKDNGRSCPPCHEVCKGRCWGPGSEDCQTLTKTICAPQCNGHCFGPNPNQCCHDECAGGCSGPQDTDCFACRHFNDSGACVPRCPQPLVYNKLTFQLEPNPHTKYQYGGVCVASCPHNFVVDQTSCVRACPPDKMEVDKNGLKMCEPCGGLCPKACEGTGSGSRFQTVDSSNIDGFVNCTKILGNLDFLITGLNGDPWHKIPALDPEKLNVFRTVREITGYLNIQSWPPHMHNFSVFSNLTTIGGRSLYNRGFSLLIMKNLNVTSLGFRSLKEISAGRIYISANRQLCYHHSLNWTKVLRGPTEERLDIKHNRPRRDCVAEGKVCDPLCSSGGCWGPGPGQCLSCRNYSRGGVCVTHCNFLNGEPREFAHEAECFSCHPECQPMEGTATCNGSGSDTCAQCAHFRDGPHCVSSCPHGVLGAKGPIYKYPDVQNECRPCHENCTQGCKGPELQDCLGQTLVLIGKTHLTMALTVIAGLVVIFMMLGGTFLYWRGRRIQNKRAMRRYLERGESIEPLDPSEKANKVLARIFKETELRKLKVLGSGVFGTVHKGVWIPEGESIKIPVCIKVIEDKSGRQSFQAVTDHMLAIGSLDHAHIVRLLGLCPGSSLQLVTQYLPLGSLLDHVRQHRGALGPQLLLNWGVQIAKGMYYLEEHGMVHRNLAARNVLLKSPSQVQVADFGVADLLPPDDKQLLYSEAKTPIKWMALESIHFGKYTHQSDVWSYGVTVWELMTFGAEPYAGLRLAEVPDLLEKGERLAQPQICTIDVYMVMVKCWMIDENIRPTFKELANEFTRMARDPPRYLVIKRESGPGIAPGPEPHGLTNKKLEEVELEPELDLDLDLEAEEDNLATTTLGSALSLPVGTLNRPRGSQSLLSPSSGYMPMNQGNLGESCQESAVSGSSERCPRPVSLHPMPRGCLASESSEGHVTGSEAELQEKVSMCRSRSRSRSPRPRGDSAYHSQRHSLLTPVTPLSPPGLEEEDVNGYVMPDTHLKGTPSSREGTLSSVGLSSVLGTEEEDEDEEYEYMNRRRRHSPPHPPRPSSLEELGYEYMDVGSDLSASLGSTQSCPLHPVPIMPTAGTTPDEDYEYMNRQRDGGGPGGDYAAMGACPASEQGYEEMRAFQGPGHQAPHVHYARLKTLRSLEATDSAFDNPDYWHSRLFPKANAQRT
BSA, sequence (P02769 25-607): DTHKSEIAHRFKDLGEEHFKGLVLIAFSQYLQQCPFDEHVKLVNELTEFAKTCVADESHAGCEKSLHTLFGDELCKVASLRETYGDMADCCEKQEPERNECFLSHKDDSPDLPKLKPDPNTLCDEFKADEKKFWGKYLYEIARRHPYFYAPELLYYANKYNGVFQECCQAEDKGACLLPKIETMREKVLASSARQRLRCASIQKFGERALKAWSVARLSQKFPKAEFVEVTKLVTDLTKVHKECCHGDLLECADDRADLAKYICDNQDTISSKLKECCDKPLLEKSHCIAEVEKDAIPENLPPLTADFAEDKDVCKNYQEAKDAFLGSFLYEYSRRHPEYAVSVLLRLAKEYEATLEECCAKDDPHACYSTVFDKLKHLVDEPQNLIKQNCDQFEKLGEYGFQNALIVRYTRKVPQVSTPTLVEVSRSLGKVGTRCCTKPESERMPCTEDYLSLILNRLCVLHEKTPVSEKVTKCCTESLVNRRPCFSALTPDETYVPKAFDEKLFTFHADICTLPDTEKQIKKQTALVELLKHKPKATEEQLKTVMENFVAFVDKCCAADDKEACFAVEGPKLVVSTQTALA

In general, IC50 refers to the midpoint of a concentration-inhibition curve. “1.1.FI-Z: peptide 1.1.FI expressed and secreted from E. coli as a fusion to the Z domain of protein A (QVYESWGCIGPGCACLQACL)”: in the assay with HER2-ECD [1], the “HER2 binding activity of Superdex 75 fractions (active species)” value is reported as “coincided with the dimer fractions rather than the monomer fractions; also recorded: coinciding with dimer fractions” and the IC50 is 50 nM.

As for “1.1.FI-Zb: biotinylated 1.1.FI-Z preparation (QVYESWGCIGPGCACLQACL; cysteine pairing not given here; also: biotinylated (NHS-LC-biotin), fused to Z domain (not in chain))”, the “Binding to cells by FACS” value with HER2 expressed on cells is given as “bind cells proportional to the number of HER2 receptors expressed on the cell”.

For the substance “(FI)2-Z: 1.1.FI sequence repeated twice and fused to the Z domain of protein A, single chain dimer (QVYESWGCIGPGCACLQACLGGGSGGQVYESWGCIGPGCACLQACL; cysteine pairing not given here; also: fused to the Z domain of protein A (end not given here))”, the “HER2 binding activity of Superdex 75 fractions (active species)” value was “the active species was now identified as monomer” with HER2-ECD [1] and “coinciding with monomer fractions” with HER2-ECD [1] (listed as (1.1FI)2-Z).

For “CSWVLVQCGGEWWHCCGLGCGLVVNAC (cysteine pairing not given here) [7.1]”, the “Phage binding to immobilized HER2-ECD” value on HER2-ECD [2] is on record as “bind”. Further, the “Phage binding to HER3” value at HER3 is “not”. Moreover, on HER4, the “Phage binding to HER4” value was “not”. Also, the “Phage binding to immobilized BSA” value at BSA is recorded as “not”.

In the case of R S C A D V A S R C W E H C I T [5.1], the “Phage binding to immobilized HER2-ECD” value at HER2-ECD [2] was “bind”. In addition, the “Phage binding to HER3” value at HER3 is given as “not”. Further, at HER4, the “Phage binding to HER4” value is “not”. In addition, the “Phage binding to immobilized BSA” value on BSA is listed as “not”.

Regarding “YEVEAWDCMGPGCANLFEAH [1.1]”, at HER2-ECD [2], the “Phage binding to immobilized HER2-ECD” value is on record as “bind”. Further, the “Phage binding to HER3” value at HER3 was “not”. For the same substance, the “Phage binding to HER4” value at HER4 is recorded as “not”. Besides, the “Phage binding to immobilized BSA” value at BSA was “not”.

Take “YSFEGWGCIGPGCAYLFEGH (cysteine pairing not given here) [HER201]”: the “Blocking of binding of Class 1 and Class 7 phage to immobilized HER2” value on immobilized HER2 was “block the binding of both Class 1 and Class 7 phage”.

“active fraction: HPLC fraction of trypsin-digested 1.1.FI-Z; mass corresponding to HER212 sequence, found to contain dimer (QVYESWGCIGPGCACLQACL; cysteine pairing not given here; also: fraction found to contain dimer)”: in the assay with HER2-ECD [1], the IC50 worked out at 3 nM.
